For data set [1], the system named is Human lung cancer cells A549. In words: CellTiter-Glo cell viability assay, A549 lung cancer cells. It is filed as cell-based. The conditions noted are these: for cytotoxicity at 100 µM / IC50: Homo sapiens; for cytotoxicity at 100 µM: A549, 100 μM, relative to control (DMSO), read-out: decrease in cell viability; for IC50: A549, 24 hours. As to the method: (§1) Human lung cancer cells A549, human breast cancer cells MDA-MB-231 and colorectal cancer cells HT29, were used to test the antiproliferative activity of the synthesised compounds. Human lung cancer cells A549 were maintained in RPMI 1640 medium (Hyclone Laboratories, USA), human breast cancer cells MDA-MB-231 and colorectal cancer cells HT29 were maintained in DMEM medium (Hyclone Laboratories, USA). All media was supplemented with antibiotics (penicillin 50 U/ml; streptomycin 50 ug/ml) (Hyclone Laboratories, USA).
(§2) Cells were seeded at a density of 5,000 cells/well into 96-well plates. After 24 h, cells were treated for 24 and 48 h with different concentrations of compounds TQ1-5 and 8 (5-100 μM), in triplicate. Control cultures were treated with 0.1% DMSO. The effect of the compounds TQ1-8 on cell viability was determined using the CellTiter-Glo Luminescent Cell Viability assay (Promega Corporation, Madison, USA), based on quantification of ATP, which signals the presence of metabolically active cells. The luminescent signal was measured using the GLOMAX Luminometer system. Data were presented as proportional viability (%) by comparing the treated group with the untreated cells, the viability of which is assumed to be 100%.
(ATP-based viability assays read luminescence as a measure of living cells.)

For data set [2], the system named is G-quadruplex DNA. The data set can be described thus: Melting temperature curves of G-quadruplex and TQ complexes by CD. The format is binding, human. The note with it: for Tm: equimolar G-quadruplex and TQ 3.93×10^−6 M, Tris-KCl buffer pH 7.4, CD at 293 nm; for Δ Tm: versus G-quadruplex DNA alone (70.0 ° C.). The procedure:
(§3) A 2 ml of the stock single stranded DNA; 5′-[…]-3′ (SEQ ID NO: 1) was gently heated up to 95° C., incubated for 10 minutes and then left to cool to room temperature. Resultant solution was kept in fridge at 4° C. overnight.
Melting temperature curves for G-quadruplex and their TQs adducts were constructed using CD spectral measurements.
A 1 ml telomeric G-quadruplex (3.93×10^−6 M) in Tris-KCl-buffer pH7.4, was heated in 1-5° C. increments in the range 25-95° C. using 5 minutes incubation time intervals. CD spectra were recorded in the range 200-400 nm using 50 nm/min, 1 nm band width and 3 accumulations at each point. CD spectra were baseline corrected against blank solution and CD intensities at 293 nm were plotted versus temperature.
Similarly G-quadruplex-TQ1-8 1 mL complex solutions that were 3.93×10^−6 M of G-quadruplex and 3.93×10−6 M of TQs were heated up to 95° C. and measured. The solutions were prepared by mixing equi-molar amounts of G-quadruplex (27.3 μL, 1.44×10^−4 M) with TQ compounds 1-8 (39.30 μL, 1×10^−4 M) in 1 mL KCl-buffer, pH 7.4. CD spectra were baseline corrected and CD intensities at 293 nm were plotted versus temperature.

For data set [3], the system named is G-quadruplex DNA. The data set can be described thus: Fluorescence titration of TQs with G-quadruplex DNA (modified Scatchard). It is filed as binding, human. The note with it: non-linear regression, modified Scatchard equation. As to the method: as §3
To 3 ml of 5×10^−5 M of each of compounds TQ1-8 in Tris-KCl-buffer, pH 7.4, successive portions of G-quadruplex DNA (1.44×10^−4 M) were added. After each addition, the TQ solution was stirred for 20 seconds, incubated for 3 min and its emission was scanned in the range 300-600 nm using excitation Amax of 280 nm and slit width of 10.00 nm. Titration stopped when no change in fluorescence intensity was observed.
Scatchard plots were used to determine the binding affinity of the thymoquinone derivative compounds to G-quadruplex based on fluorescence titration, keeping the compounds concentration constant and varying DNA amounts.
Dependant binding sites may have synergistic (the first bound ligand encourage the next binding one) or antagonistic (the first bound ligand suppress the next binding one) effects on each other, a phenomenon known as the neighbor exclusion effect. Non-linear regression based on a modified Scatchard equation gave the binding constants and number of binding sites shown in Table 3. Compound TQ8 has shown the highest binding constant (1.33×10^7 M^−1) and compound TQ5 has shown the lowest binding constant (7.76×10^4 M^−1)

In data set [4] the test system is human breast cancer cells MDA-MB-231. The data set can be described thus: CellTiter-Glo cell viability assay, MDA-MB-231 breast cancer cells. It is filed as cell-based. The conditions noted are these: for cytotoxicity at 100 µM: MDA-MB-231, 100 μM, read-out: loss in cell viability. As to the method: as §1, §2
For data set [5], the system named is colorectal cancer cells HT29. In words: CellTiter-Glo cell viability assay, HT29 colorectal cancer cells. It is filed as cell-based. The note with it: Homo sapiens, HT-29; for cytotoxicity at 100 µM: HT29, 100 μM, read-out: loss in cell viability. As to the method: as §1, §2
For data set [6], the system named is Human lung cancer cells A549. The conditions noted are these: value has been reported, read-out: IC50 A549 (parent TQ, reported); cited from earlier work.

Like-named read-outs stand apart in the source and are kept apart here.

One may read the IC50 as the concentration that gives 50% inhibition. A word on the melting point: it is the temperature, or range, at which the solid turns liquid.

Regarding `CC1=C(NCCN2CCOCC2)C(=O)C(C(C)C)=CC1=O` [TQ1, 5-Isopropyl-2-methyl-3-((2-morpholinoethyl)amino)-1,4-benzoquinone], the melting point lay within 92 to 95 °C. In addition, the cytotoxicity at 100 µM in data set [1] (24 hours) stood at 15%. Besides, in data set [1] (48 hours exposure), the cytotoxicity at 100 µM was determined as 33%. In addition, half-maximal inhibition in data set [1] (IC50) required 74.3 µM. Moreover, in data set [2], the Tm amounted to 79.0 °C and the “Δ Tm” value stood at 9.0 °C. In data set [3], the “binding constant K” value was determined as 113000 M⁻¹.
Take `CC1=C(NCc2ccc(C(F)(F)F)cc2)C(=O)C(C(C)C)=CC1=O` [TQ2, 5-Isopropyl-2-methyl-3-(4-trifluoromethylbenzylamino)-1,4-benzoquinone]: the melting point lay in the range of 110.5 to 112 °C. The cytotoxicity at 100 µM in data set [1] (24 hours) was determined as 32%. Moreover, the cytotoxicity at 100 µM in data set [1] (48 hours exposure) was found to be 57%. This compound yielded an IC50 in data set [1] of 84.3 µM. In data set [2], the Tm was found to be 76.0 °C and the “Δ Tm” value is 6.0 °C. In addition, the “binding constant K” value in data set [3] is 567000 M⁻¹.
On to `CC1=C(NCc2ccc(F)cc2)C(=O)C(C(C)C)=CC1=O` [TQ3, 5-Isopropyl-2-methyl-3-(4-fluorobenzylamino)-1,4-benzoquinone], for which the melting point lay in the range of 80 to 82.5 °C. Moreover, the cytotoxicity at 100 µM in data set [1] (24 hours) is 29%. The cytotoxicity at 100 µM in data set [1] (48 hours exposure) was found to be 64%. The IC50 in data set [1] is 83.2 µM. In addition, in data set [2], the Tm was found to be 76.0 °C and the “Δ Tm” value is 6.0 °C. In addition, in data set [3], the “binding constant K” value is 330000 M⁻¹.
For the compound `CC1=C(NCc2ccccc2)C(=O)C(C(C)C)=CC1=O` [TQ4, 5-Isopropyl-2-methyl-3-(benzylamino)-1,4-benzoquinone], the melting point was in the range of 83 to 84.5 °C. Also, the cytotoxicity at 100 µM in data set [1] (24 hours) worked out at 17%. In data set [1] (48 hours exposure), the cytotoxicity at 100 µM was 58%. The IC50 in data set [1] is 88.7 µM. In data set [2], the Tm was determined as 76.0 °C and the “Δ Tm” value worked out at 6.0 °C. Further, the “binding constant K” value in data set [3] turned out to be 95200 M⁻¹.
In turn, `CC1=C(NCc2cc(C(F)(F)F)cc(C(F)(F)F)c2)C(=O)C(C(C)C)=CC1=O` [TQ5, 5-Isopropyl-2-methyl-3-(3,5-ditrifluoromethylbenzylamino)-1,4-benzoquinone] returned a melting point of 111 to 114 °C. Also, in data set [1] (24 hours), the cytotoxicity at 100 µM turned out to be 33%. Also, the cytotoxicity at 100 µM in data set [1] (48 hours exposure) is 48%. Further, in data set [1], the concentration for half-maximal inhibition (IC50) came to 105 µM. Further, in data set [2], the Tm was determined as 77.0 °C and the “Δ Tm” value was determined as 7.0 °C. Further, the “binding constant K” value in data set [3] amounted to 77600 M⁻¹.
Regarding `CC1=C(NCCO)C(=O)C(C(C)C)=CC1=O` [TQ6, 5-isopropyl-2-methyl-3-(2-hydroxyethylamino)-1,4-benzoquinone], in data set [2], the Tm stood at 80.0 °C and the “Δ Tm” value was found to be 10.0 °C. The “binding constant K” value in data set [3] turned out to be 1.49e+06 M⁻¹.
Taken in the same sequence, the figures for `COc1ccc(CNC2=C(C)C(=O)C=C(C(C)C)C2=O)cc1OC` [TQ7, 5-isopropyl-2-methyl-3-(3,4-dimethoxylbenzylamino)-1,4-benzoquinone] were 77.0 °C, 7.7 °C and 1.17e+06 M⁻¹.
Take `CC1=C(N)C(=O)C(C(C)C)=CC1=O` [TQ8, 3-amino-5-isopropyl-2-methyl-1,4-benzoquinone]: the melting point was 68 to 72 °C. The “potency compared to the parent TQ molecule” value in data set [1] (A549 IC50 comparison) was at least 200%. Moreover, the cytotoxicity at 100 µM in data set [1] (24 hours) was found to be 99%. In addition, in data set [1] (48 hours exposure), the cytotoxicity at 100 µM was 100%. In data set [1], this compound gave an IC50 of 35 µM. Besides, in data set [4] (24 hours exposure), the cytotoxicity at 100 µM turned out to be 83%. Also, in data set [4] (48 hours exposure), the cytotoxicity at 100 µM came out at 98%. In addition, half-maximal inhibition in data set [4] (MDA-MB-231, 24 hours) (IC50) required 45.1 µM. For the same compound, the cytotoxicity at 100 µM in data set [5] (24 hours exposure) was found to be 97%. Further, in data set [5] (48 hours exposure), the cytotoxicity at 100 µM was found to be 99%. This compound yielded an IC50 in data set [5] (HT29, 24 hours) of 55.8 µM.
For `CC1=CC(=O)C(C(C)C)=CC1=O` [TQ, 2-isopropyl-5-methyl-1,1,4-benzoqinone], the IC50 in data set [6] was 78.3 µM.

The values above are taken from patent publication US10501428B2, “Thymoquinone derivatives for treatment of cancer” (United Arab Emirates University, priority 2014, dated 2019).
